Experiment [1] has as its target T1, Gonadotropin-releasing hormone receptor (Homo sapiens, UniProt P30968).
T1 sequence (P30968 whole entry): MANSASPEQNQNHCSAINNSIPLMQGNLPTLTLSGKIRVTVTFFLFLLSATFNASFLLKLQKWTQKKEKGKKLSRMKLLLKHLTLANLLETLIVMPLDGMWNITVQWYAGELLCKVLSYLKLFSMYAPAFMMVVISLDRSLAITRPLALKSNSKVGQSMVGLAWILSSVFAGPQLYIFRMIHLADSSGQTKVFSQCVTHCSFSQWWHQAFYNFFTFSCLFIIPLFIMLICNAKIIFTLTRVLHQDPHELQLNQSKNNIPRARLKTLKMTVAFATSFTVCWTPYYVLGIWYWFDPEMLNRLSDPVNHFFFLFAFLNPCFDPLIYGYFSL
Description: Displacement of [125I]D-Trp6-LHRH from human GnRH receptor expressed in CHO-K1 cell membranes incubated for 1 hr by competitive binding assay. (Displacement assays read how much labelled ligand stays bound in the presence of the test substance.)

The target in experiment [2] is T1, Gonadotropin-releasing hormone receptor. In words: Antagonist activity against human GnRH receptor expressed in HEK293 cells co-transfected with pGL4-NFAT promoter AP1-luc assessed as inhibition of 20 nM GnRH-induced NFAT activation pre-incubated for 1 hr before GnRH stimulation and measured after 6 hrs by luciferase reporter gene assay. Type of experiment: cell-based.

pIC50: −log10 of the molar value. Some results are limits rather than exact numbers.

One may read the pIC50 as the negative decadic logarithm of the IC50, by convention in mol/L.

With `Cc1c(N2CCN(Cc3cscn3)CC2)c(=O)n(C[C@H](N)c2ccccc2)c(=O)n1Cc1c(F)cccc1C(F)(F)F`, the pIC50 is 7.45 in experiment [1] and 5.67 in experiment [2]. On the same counts, the results for `COC(=O)c1ccccc1CN1CCN(c2c(C)n(Cc3c(F)cccc3C(F)(F)F)c(=O)n(C[C@H](N)c3ccccc3)c2=O)CC1` are 7.61 and under 5.00. `COC(=O)c1cccc(CN2CCN(c3c(C)n(Cc4c(F)cccc4C(F)(F)F)c(=O)n(C[C@H](N)c4ccccc4)c3=O)CC2)c1`: the negative logarithm of the IC50 (pIC50) in experiment [1] was 9.41; in experiment [2], 7.63. Take `Cc1c(N2CCN(Cc3ccoc3)CC2)c(=O)n(C[C@H](N)c2ccccc2)c(=O)n1Cc1c(F)cccc1C(F)(F)F`: the pIC50 in experiment [1] was 8.18; in experiment [2], under 6.00. For the compound `Cc1c(N2CCN(Cc3cccs3)CC2)c(=O)n(C[C@H](N)c2ccccc2)c(=O)n1Cc1c(F)cccc1C(F)(F)F`, the figures for the pIC50 in experiment [1] and in experiment [2] were 8.90 and under 6.00, respectively. `Cc1c(N2CCN(Cc3ccon3)CC2)c(=O)n(C[C@H](N)c2ccccc2)c(=O)n1Cc1c(F)cccc1C(F)(F)F`: the figures for the pIC50 in experiment [1] and in experiment [2] were 7.85 and under 6.00, respectively. In the same order, the values of `Cc1c(N2CCN(Cc3ccc(=O)[nH]c3)CC2)c(=O)n(C[C@H](N)c2ccccc2)c(=O)n1Cc1c(F)cccc1C(F)(F)F` are 7.55 and 5.96. As to `Cc1c(N2CCN(Cc3cccc(F)c3F)CC2)c(=O)n(C[C@H](N)c2ccccc2)c(=O)n1Cc1c(F)cccc1C(F)(F)F`, the pIC50 is 9.41 in experiment [1] and 6.58 in experiment [2]. On the same counts, the results for `Cc1c(N2CCN(Cc3ccc(C#N)o3)CC2)c(=O)n(C[C@H](N)c2ccccc2)c(=O)n1Cc1c(F)cccc1C(F)(F)F` are 9.77 and 6.99. Turning to `Cc1c(N2CCN(Cc3ccco3)CC2)c(=O)n(C[C@H](N)c2ccccc2)c(=O)n1Cc1c(F)cccc1C(F)(F)F`, the pIC50 is 8.56 in experiment [1] and under 6.00 in experiment [2]. As for `COC(=O)c1ccc(CN2CCN(c3c(C)n(Cc4c(F)cccc4C(F)(F)F)c(=O)n(C[C@H](N)c4ccccc4)c3=O)CC2)o1`, the pIC50 was 9.51 in experiment [1] and 7.19 in experiment [2]. Consider `Cc1c(N2CCN(Cc3cccnc3Cl)CC2)c(=O)n(C[C@H](N)c2ccccc2)c(=O)n1Cc1c(F)cccc1C(F)(F)F`, for which the figures for the negative-log IC50 (pIC50) in experiment [1] and in experiment [2] were 8.59 and 6.28, respectively.

For `Cc1cc(CN2CCN(c3c(C)n(Cc4c(F)cccc4C(F)(F)F)c(=O)n(C[C@H](N)c4ccccc4)c3=O)CC2)c(C(F)(F)F)o1`, the pIC50 in experiment [1] is under 7.00; in experiment [2], under 6.00. Regarding `Cc1c(N2CCN(Cc3cccc(OC(F)(F)F)c3)CC2)c(=O)n(C[C@H](N)c2ccccc2)c(=O)n1Cc1c(F)cccc1C(F)(F)F`, the figures for the pIC50 in experiment [1] and in experiment [2] were 9.00 and 6.60, respectively. On the same counts, the results for `Cc1c(N2CCN(Cc3cccc4nonc34)CC2)c(=O)n(C[C@H](N)c2ccccc2)c(=O)n1Cc1c(F)cccc1C(F)(F)F` are 9.22 and 6.05. Take `Cc1c(N2CCN(Cc3cocn3)CC2)c(=O)n(C[C@H](N)c2ccccc2)c(=O)n1Cc1c(F)cccc1C(F)(F)F`: the pIC50 in experiment [1] is 8.15; in experiment [2], under 6.00.

In the case of `Cc1c(N2CCN(Cc3cccc4ccsc34)CC2)c(=O)n(C[C@H](N)c2ccccc2)c(=O)n1Cc1c(F)cccc1C(F)(F)F`, the pIC50 was 7.74 in experiment [1] and 4.99 in experiment [2]. `Cc1c(N2CCN(Cc3ccc(C#N)cc3)CC2)c(=O)n(C[C@H](N)c2ccccc2)c(=O)n1Cc1c(F)cccc1C(F)(F)F`: the pIC50 in experiment [1] was 8.94; in experiment [2] it was 6.49. On to `Cc1c(N2CCN(Cc3ccccc3C#N)CC2)c(=O)n(C[C@H](N)c2ccccc2)c(=O)n1Cc1c(F)cccc1C(F)(F)F`, for which the pIC50 in experiment [1] was 9.49; in experiment [2], 6.45. On to `Cc1c(N2CCN(Cc3cnccn3)CC2)c(=O)n(C[C@H](N)c2ccccc2)c(=O)n1Cc1c(F)cccc1C(F)(F)F`, for which the pIC50 in experiment [1] is 7.70; in experiment [2], 5.69. As to `CC(=O)c1cccc(CN2CCN(c3c(C)n(Cc4c(F)cccc4C(F)(F)F)c(=O)n(C[C@H](N)c4ccccc4)c3=O)CC2)c1`, the pIC50 in experiment [1] is 9.80; in experiment [2], 7.78.

Take `Cc1c(N2CCN(Cc3ccc(Cl)o3)CC2)c(=O)n(C[C@H](N)c2ccccc2)c(=O)n1Cc1c(F)cccc1C(F)(F)F`: the pIC50 in experiment [1] was 9.41; in experiment [2] it was 6.75.

Turning to `Cc1c(N2CCN(Cc3nc4ccccc4s3)CC2)c(=O)n(C[C@H](N)c2ccccc2)c(=O)n1Cc1c(F)cccc1C(F)(F)F`, the pIC50 in experiment [1] was 7.32; in experiment [2], 5.31.

As to `Cc1c(N2CCN(Cc3nccs3)CC2)c(=O)n(C[C@H](N)c2ccccc2)c(=O)n1Cc1c(F)cccc1C(F)(F)F`, the pIC50 in experiment [1] is 7.75; in experiment [2], 5.78. As for `Cc1c(N2CCN(Cc3ccc(C(F)(F)F)nc3)CC2)c(=O)n(C[C@H](N)c2ccccc2)c(=O)n1Cc1c(F)cccc1C(F)(F)F`, the pIC50 in experiment [2] was under 6.52.

With `Cc1c(N2CCN(Cc3cccnc3)CC2)c(=O)n(C[C@H](N)c2ccccc2)c(=O)n1Cc1c(F)cccc1C(F)(F)F`, the pIC50 in experiment [1] was 8.70; in experiment [2], 6.54. On the same counts, the results for `Cc1c(N2CCN(Cc3cccc(C#N)c3)CC2)c(=O)n(C[C@H](N)c2ccccc2)c(=O)n1Cc1c(F)cccc1C(F)(F)F` are 9.39 and 6.67.

For `CNC(=O)c1cccc(CN2CCN(c3c(C)n(Cc4c(F)cccc4C(F)(F)F)c(=O)n(C[C@H](N)c4ccccc4)c3=O)CC2)c1`, the pIC50 in experiment [2] is 6.77. On to `Cc1c(N2CCN(Cc3cccc([N+](=O)[O-])c3)CC2)c(=O)n(C[C@H](N)c2ccccc2)c(=O)n1Cc1c(F)cccc1F`, for which the pIC50 was 8.54 in experiment [1] and 6.40 in experiment [2]. `CCNC(=O)c1cccc(CN2CCN(c3c(C)n(Cc4c(F)cccc4C(F)(F)F)c(=O)n(C[C@H](N)c4ccccc4)c3=O)CC2)c1`: in experiment [2], the negative logarithm of the IC50 (pIC50) was under 6.52. As to `Cc1cncc(CN2CCN(c3c(C)n(Cc4c(F)cccc4C(F)(F)F)c(=O)n(C[C@H](N)c4ccccc4)c3=O)CC2)c1`, the figures for the negative-log IC50 (pIC50) in experiment [1] and in experiment [2] were 8.14 and 5.93, respectively.

Turning to `Cc1c(N2CCN(Cc3ccc(C(F)(F)F)s3)CC2)c(=O)n(C[C@H](N)c2ccccc2)c(=O)n1Cc1c(F)cccc1C(F)(F)F`, the pIC50 in experiment [2] is 7.21. In the case of `Cc1c(N2CCN(Cc3cccc4occc34)CC2)c(=O)n(C[C@H](N)c2ccccc2)c(=O)n1Cc1c(F)cccc1C(F)(F)F`, the pIC50 in experiment [2] is under 6.52. As for `Cc1c(N2CCN(Cc3cncc(F)c3)CC2)c(=O)n(C[C@H](N)c2ccccc2)c(=O)n1Cc1c(F)cccc1C(F)(F)F`, the pIC50 is 8.70 in experiment [1] and 5.82 in experiment [2].

Regarding `Cc1c(N2CCN(Cc3cccnc3C(F)(F)F)CC2)c(=O)n(C[C@H](N)c2ccccc2)c(=O)n1Cc1c(F)cccc1C(F)(F)F`, the negative logarithm of the IC50 (pIC50) in experiment [2] is under 6.52. In the case of `Cc1c(N2CCN(Cc3ccncn3)CC2)c(=O)n(C[C@H](N)c2ccccc2)c(=O)n1Cc1c(F)cccc1C(F)(F)F`, the pIC50 in experiment [2] is under 6.52.

With `Cc1c(N2CCN(Cc3cccc(F)c3)CC2)c(=O)n(C[C@H](N)c2ccccc2)c(=O)n1Cc1c(F)cccc1C(F)(F)F`, the pIC50 in experiment [1] was 8.77; in experiment [2], 6.49. `Cc1c(N2CCN(Cc3cccc(C#N)c3F)CC2)c(=O)n(C[C@H](N)c2ccccc2)c(=O)n1Cc1c(F)cccc1C(F)(F)F`: the negative-log IC50 (pIC50) in experiment [2] was 7.21. For the compound `Cc1c(N2CCN(Cc3ccc(Cl)nc3)CC2)c(=O)n(C[C@H](N)c2ccccc2)c(=O)n1Cc1c(F)cccc1C(F)(F)F`, the pIC50 is 8.42 in experiment [1] and 6.26 in experiment [2]. In the case of `Cc1c(N2CCN(Cc3cccc(S(C)(=O)=O)c3)CC2)c(=O)n(C[C@H](N)c2ccccc2)c(=O)n1Cc1c(F)cccc1C(F)(F)F`, the values for the pIC50 in experiment [1] and in experiment [2] were 9.42 and 6.67, respectively. Consider `Cc1c(N2CCN(Cc3cccc([N+](=O)[O-])c3F)CC2)c(=O)n(C[C@H](N)c2ccccc2)c(=O)n1Cc1c(F)cccc1C(F)(F)F`, for which the pIC50 in experiment [2] is 6.94.

Turning to `Cc1c(N2CCN(Cc3cccc(C(F)(F)F)n3)CC2)c(=O)n(C[C@H](N)c2ccccc2)c(=O)n1Cc1c(F)cccc1C(F)(F)F`, the negative-log IC50 (pIC50) in experiment [2] was 6.66. Still for that read-out and setting: under `Cc1ccc(CN2CCN(c3c(C)n(Cc4c(F)cccc4C(F)(F)F)c(=O)n(C[C@H](N)c4ccccc4)c3=O)CC2)o1` stands under 6.52. Turning to `Cc1c(N2CCN(Cc3cncs3)CC2)c(=O)n(C[C@H](N)c2ccccc2)c(=O)n1Cc1c(F)cccc1C(F)(F)F`, the pIC50 was 8.05 in experiment [1] and 6.03 in experiment [2]. On to `Cc1c(N2CCN(Cc3ccc(C(N)=O)o3)CC2)c(=O)n(C[C@H](N)c2ccccc2)c(=O)n1Cc1c(F)cccc1C(F)(F)F`, for which, in experiment [2], the pIC50 is under 6.52. In the case of `Cc1c(N2CCN(Cc3cccc([S+](C)[O-])c3)CC2)c(=O)n(C[C@H](N)c2ccccc2)c(=O)n1Cc1c(F)cccc1C(F)(F)F` (some centres not stated), in experiment [2], the pIC50 was 7.29. Regarding `Cc1c(N2CCN(Cc3ccccc3F)CC2)c(=O)n(C[C@H](N)c2ccccc2)c(=O)n1Cc1c(F)cccc1C(F)(F)F`, the pIC50 was 9.00 in experiment [1] and 6.47 in experiment [2]. Regarding `Cc1c(N2CCN(Cc3cccnc3F)CC2)c(=O)n(C[C@H](N)c2ccccc2)c(=O)n1Cc1c(F)cccc1C(F)(F)F`, the pIC50 in experiment [1] was 8.97; in experiment [2] it was 6.71. For `Cc1c(N2CCN(Cc3cccc(C(N)=O)c3F)CC2)c(=O)n(C[C@H](N)c2ccccc2)c(=O)n1Cc1c(F)cccc1C(F)(F)F`, in experiment [2], the pIC50 is 7.38. Turning to `Cc1ccc(CN2CCN(c3c(C)n(Cc4c(F)cccc4C(F)(F)F)c(=O)n(C[C@H](N)c4ccccc4)c3=O)CC2)cn1`, the pIC50 in experiment [1] was 7.85; in experiment [2], 5.77. With `Cc1c(N2CCN(Cc3cccc(F)c3C#N)CC2)c(=O)n(C[C@H](N)c2ccccc2)c(=O)n1Cc1c(F)cccc1C(F)(F)F`, the pIC50 in experiment [2] is 6.97.

These data come from ChEMBL document CHEMBL4428102, “Discovery of an Orally Bioavailable Gonadotropin-Releasing Hormone Receptor Antagonist” (J Med Chem, 2016).
